The values below are quoted from earlier work in patent publication US9498464B2, “Treatment of arterial wall by combination of RAAS inhibitor and HMG-CoA reductase inhibitor” (ARTSKIN d.o.o., priority 2011, dated 2016).

The subject of this data set is arterial stiffness. The conditions noted are these: 12 weeks, 80 mg then 160 mg/day, patients with type 2 diabetes and hypertension.

For `CCCCC(=O)N(Cc1ccc(-c2ccccc2-c2nnn[nH]2)cc1)[C@H](C(=O)O)C(C)C` [valsartan], the “arterial stiffness (pulse wave analysis)” value was “improves arterial stiffness”.
